# Experimental data taken from patent US11059778B2, “Cannabinoid receptor CB2 ligand 4-(aminomethyl)-N, N-dialkylanilines” (UNIVERSITY OF PITTSBURGH—OF THE COMMONWEALTH SYSTEM OF …, priority 2015, dated 2021).
# Experiments:
# [1] = target: T1, human CB2 receptors (Homo sapiens, UniProt P34972); assay: [3H]CP-55,940 radioligand competition binding assay, CB2; conditions: for Ki: CHO cell membranes, [3H]CP-55,940 displacement
# T1 construct: expressed in transfected cells
# Protocol: (§1) Binding assay. The bioassay is carried out using the Perkin Elmer 96-well Top Counter. This bioassay is also known as a competition binding assay and the biological evaluation is to determine the CB receptor binding affinity (Ki) of the screened ligands by displacing [^3H]-CP-55940 (or other radioligands). The brief procedure is given below.
# (§2) Perkin Elmer 96-well TopCounter is used at PMLSC and in our laboratory to determine the CB receptor binding affinity (Ki) of the in-silico screened ligands by displacing [^3H]-CP-55,940 (or other radioligands). In competition binding experiments, the tested compound dilutions are carried out in triplicate in TME buffer (25 mM Tris, 5 mM MgCl2, 1 mM EDTA) containing 0.1% (w/v) fatty acid free bovine serum albumin (BSA), pH 7.4. Various concentrations of the tested compound are added in the same volume to 0.5 nM [^3H]CP-55,940. TME buffer and cell membrane preparations expressing CB receptors (2.5 μg per well) are added to a final volume of 200 μL. For the saturation binding experiments, varying concentrations of [^3H]CP-55,940 (0.05-1.5 nM) with or without 2 μM of unlabeled ligands (CP-55,940 or WIN-55,212-2) are incubated with the receptor membrane preparations to determine Kd and nonspecific binding. After the binding suspensions are incubated at 30° C. for 1 hr, the reaction is terminated by rapid filtration through microfiltration plates coated with 0.5% polyethylenimine (Unifilter GF/B filterplate, PerkinElmer) followed by 5 washes with ice cold TME buffer containing 0.5% BSA on a Packard Filtermate Harvester (PerkinElmer). The plates are then dried overnight and 30 μl MicroScint 0 scintillation cocktail are added to each well of the dried filter plates. Then the bound radioactivity is counted using a Perkin Elmer 96-well TopCounter. The Ki is calculated by using nonlinear regression analysis (Prism 5; GraphPad Software Inc., San Diego, Calif.), with the Kd values for [^3H]CP-55,940 determined from saturation binding experiments. This assay is used for determining binding affinity parameters (Ki) of ligand-receptor interactions for the CB receptor.
# (§3) The affinities of the synthesized ligands were determined in radioligand binding studies at human CB1 and CB2 receptors using [3H](—)-cis-3-[2-hydroxy-4-(1,1 dimethylheptyl)phenyl]-trans-4-(3-hydroxypropyl) cyclohexanol (CP55,940) as a CB receptor radioligand. As a source for human CB1 and CB2 receptors, membrane preparations of Chinese hamster ovary (CHO) cells stably expressing the respective receptor subtype were utilized (50 μg of protein/vial). CB2 selective ligand SR144528 (CB2 inverse agonist) and CB1 ligand SR141716 (CB1 inverse agonist) were used as positive controls, respectively, along with the tested compounds in bioassays experiments. Only compounds with high CB2 receptor binding potency was chosen to carry out the CB1 binding assay. CB ligand competition binding assay was carried out as described previously in Gertsch, J., et al., Beta-caryophyllene is a dietary cannabinoid. Proc Natl Acad Sci USA 2008, 105 (26), 9099-104. Briefly, non-radioactive (or cold) ligands (synthesized derivatives and reference ligands) were diluted in a binding buffer (50 mM Tris-HCl (pH 7.4), 5 mM MgC12, 2.5 mM EGTA, and 0.1% (w/v) fatty acid free BSA), supplemented with 10% dimethyl sulfoxide and 0.4% methyl cellulose. Each assay plate well contained a total of 200 μL of reaction mixture composed of 5 μg of CB1 (or 2.5 μg CB2) membrane protein, labeled [3H]-CP-55,940 ligand at a final concentration of 2.5 nM, and the unlabeled ligand at its varying dilutions as stated above. Plates were incubated at 30° C. for 1 hour with gentle shaking.
# (§4) The reaction was terminated by rapid filtration through Unifilter GF/B filter plates using a Unifilter Cell Harvester (PerkinElmer). After the plate was allowed to dry overnight, 30 μL MicroScint-0 cocktail (PerkinElmer) was added to each well, and the radioactivity was counted using a PerkinElmer TopCounter. […]
# [2] = target: T2, human CB1 receptors (Homo sapiens, UniProt P21554); assay: [3H]CP-55,940 radioligand competition binding assay, CB1; conditions: CHO cell membranes, [3H]CP-55,940 displacement
# T2 construct: expressed in transfected cells
# T2 sequence (P21554 whole entry): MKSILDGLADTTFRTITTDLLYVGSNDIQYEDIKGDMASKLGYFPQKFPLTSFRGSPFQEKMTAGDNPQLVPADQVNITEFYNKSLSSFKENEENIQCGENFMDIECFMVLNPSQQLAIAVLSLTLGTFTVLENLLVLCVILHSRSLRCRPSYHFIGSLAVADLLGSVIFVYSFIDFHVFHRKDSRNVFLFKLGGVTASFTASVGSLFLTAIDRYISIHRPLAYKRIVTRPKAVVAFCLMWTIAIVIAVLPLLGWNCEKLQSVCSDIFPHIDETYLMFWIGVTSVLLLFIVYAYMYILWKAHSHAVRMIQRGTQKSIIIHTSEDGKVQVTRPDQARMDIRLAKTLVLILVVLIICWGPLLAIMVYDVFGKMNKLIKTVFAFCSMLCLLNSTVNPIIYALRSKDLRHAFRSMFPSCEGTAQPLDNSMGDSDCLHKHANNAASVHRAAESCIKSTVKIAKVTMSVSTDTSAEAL
# Protocol: as §1, §2, §3, §4
# T1 sequence (P34972 whole entry): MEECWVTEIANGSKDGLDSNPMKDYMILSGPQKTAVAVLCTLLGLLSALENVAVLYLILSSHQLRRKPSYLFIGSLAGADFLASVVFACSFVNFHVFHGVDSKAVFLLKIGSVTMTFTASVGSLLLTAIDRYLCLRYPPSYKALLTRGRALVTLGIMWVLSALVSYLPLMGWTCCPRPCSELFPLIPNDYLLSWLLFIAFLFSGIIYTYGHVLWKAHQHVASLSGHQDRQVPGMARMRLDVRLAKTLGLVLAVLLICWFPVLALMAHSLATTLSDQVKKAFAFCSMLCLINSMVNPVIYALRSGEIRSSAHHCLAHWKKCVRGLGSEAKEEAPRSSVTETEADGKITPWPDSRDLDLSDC
structure (smiles),measurement,setting,value
"CCN(CC)c1ccc(CNCc2ccc3c(c2)OCO3)cc1 [Compound 28, 4-(((benzo[d][1,3]dioxol-5-ylmethyl)amino)methyl)-N,N-diethylaniline]",Ki,[1],> 20000 nM
"CCN(CC)c1ccc(CN(Cc2cc(OC)c(OC)c(OC)c2)S(=O)(=O)c2ccc(OC(F)(F)F)cc2)cc1 [Compound 13, N-(4-(diethylamino)benzyl)-4-(trifluoromethoxy)-N-(3,4,5-trimethoxybenzyl)benzenesulfonamide]","SI: selectivity index for CB2, calculated as Ki(CB1)/Ki(CB2) ratio",[1],2
same,Ki,[1],990 nM
same,Ki,[2],1240 nM
"CCCCCN(Cc1ccc(N(CC)CC)cc1)C(=O)c1cnc2ccccc2n1 [Compound 39, N-(4-(diethylamino)benzyl)-N-pentylquinoxaline-2-carboxamide]","SI: selectivity index for CB2, calculated as Ki(CB1)/Ki(CB2) ratio",[1],1
same,Ki,[1],1850 nM
same,Ki,[2],1860 nM
"CCN(CC)c1ccc(CN(Cc2cc(OC)c(OC)c(OC)c2)S(=O)(=O)c2cccs2)cc1 [Compound 16, N-(4-(diethylamino)benzyl)-N-(3,4,5-trimethoxybenzyl)thiophene-2-sulfonamide]","SI: selectivity index for CB2, calculated as Ki(CB1)/Ki(CB2) ratio",[1],32
same,Ki,[1],639 nM
same,Ki,[2],> 20000 nM
"CCCCCN(Cc1ccc(N(CC)CC)cc1)C(=O)c1cccs1 [Compound 40, N-(4-(diethylamino)benzyl)-N-pentylthiophene-2-carboxamide]","SI: selectivity index for CB2, calculated as Ki(CB1)/Ki(CB2) ratio",[1],7
same,Ki,[1],362 nM
same,Ki,[2],2440 nM
"CCN(CC)c1ccc(CN(Cc2cc(OC)c(OC)c(OC)c2)C(=O)c2cnc3ccccc3n2)cc1 [Compound 12, N-(4-(diethylamino)benzyl)-N-(3,4,5-trimethoxybenzyl)quinoxaline-2-carboxamide]","SI: selectivity index for CB2, calculated as Ki(CB1)/Ki(CB2) ratio",[1],52
same,Ki,[1],249 nM
same,Ki,[2],13000 nM
"CCN(CC)c1ccc(CN(Cc2cccnc2)C(=O)c2cccs2)cc1 [Compound 21, N-(4-(diethylamino)benzyl)-N-(pyridin-3-ylmethyl)thiophene-2-carboxamide]",Ki,[1],1020 nM
"CCN(CC)c1ccc(CN(Cc2ccc3c(c2)OCO3)S(=O)(=O)c2ccc(-c3ccccc3)cc2)cc1 [Compound 34, N-(benzo[d][1,3]dioxol-5-ylmethyl)-N-(4-(diethylamino)benzyl)-[1,1′-biphenyl]-4-sulfonamide]",Ki,[1],2000 nM
"CCCCCN(Cc1ccc(N(CC)CC)cc1)S(=O)(=O)c1ccc(-c2ccccc2)cc1 [Compound 42, N-(4-(diethylamino)benzyl)-N-pentyl-[1,1′-biphenyl]-4-sulfonamide]",Ki,[1],3150 nM
"CCN(CC)c1ccc(CNCc2cc(OC)c(OC)c(OC)c2)cc1 [Compound 3, N,N-diethyl-4-(((3,4,5-trimethoxybenzyl)amino)methyl)aniline]",Ki,[1],42300 nM
"CCCCCNCc1ccc(N(CC)CC)cc1 [Compound 36, N,N-diethyl-4-((pentylamino)methyl)aniline]",Ki,[1],40200 nM
"CCN(CC)c1ccc(CN(Cc2ccc3c(c2)OCO3)S(=O)(=O)c2ccc3ccccc3c2)cc1 [Compound 33, N-(benzo[d][1,3]dioxol-5-ylmethyl)-N-(4-(diethylamino)benzyl)naphthalene-2-sulfonamide]",Ki,[1],882 nM
"CCN(CC)c1ccc(CNCc2cccnc2)cc1 [Compound 20, N,N-diethyl-4-(((pyridin-3-ylmethyl)amino)methyl)aniline]",Ki,[1],> 20000 nM
"CCN(CC)c1ccc(CN(Cc2cc(OC)c(OC)c(OC)c2)S(=O)(=O)c2ccc(OC)c(OC)c2)cc1 [Compound 17, N-(4-(diethylamino)benzyl)-3,4-dimethoxy-N-(3,4,5-trimethoxybenzyl)benzenesulfonamide]",Ki,[1],657 nM
"CCN(CC)c1ccc(CN(Cc2cccnc2)C(=O)c2cnc3ccccc3n2)cc1 [Compound 22, N-(4-(diethylamino)benzyl)-N-(pyridin-3-ylmethyl)quinoxaline-2-carboxamide]",Ki,[1],1200 nM
